Columns and labels:
[1] = test system: endothelial glycocalyx; conditions: in vivo; cited from earlier work
[2] = test system: endothelial glycocalyx; parameters: species or system human; conditions: in vivo
[3] = test system: endotoxin-induced inflammatory reactions; test: Clinical symptoms and vital signs after intravenous endotoxin challenge in healthy male volunteers; assay type: in vivo, human
Experimental: (§1) Twentyone healthy Caucasian male volunteers were studied. […] Participants had no history of cardiovascular disease. […] All experiments were performed after an overnight fast.

[4] = test system: glycocalyx shedding; test: Plasma glycocalyx components (hyaluronan, heparan sulphate) and hyaluronidase activity after endotoxin challenge; assay type: in vivo, human
Experimental: as §1

[5] = test system: endothelial glycocalyx; test: Estimation of systemic glycocalyx volume (Dextran 40 distribution volume minus circulating plasma volume) after endotoxin challenge; assay type: in vivo, human; parameters: haematocrit values: unit not given here; conditions: 4 hours after endotoxin infusion
Experimental: as §1
Systemic glycocalyx volume was estimated as previously published by subtracting circulating plasma volume from the intravascular distribution volume of the glycocalyx permeable tracer Dextran 40 (Nieuwdorp M et al. 2006. Diabetes 55: 480-6; Suffredini et al. 1999, supra). Circulating plasma volume was calculated with a previously published method (Orth et al. 1998. Anesth Analg 87: 1234-8). The intravascular distribution volume of labelled autologous erythrocytes was used to quantify the circulating blood volume. Blood was drawn and centrifuged at 1,330 rpm for 5 minutes. Subsequently, sodium fluorescein (fluorescein-di-Na 25%, 250 mg/ml, AZUA Pharmacy, Amsterdam, the Netherlands) was added to the erythrocyte fraction for 5 minutes. After careful washing, labelled erythrocytes were resuspended in saline to the initial volume (60 ml) and re-infused. Subsequently, blood was drawn at 4, 5, 6, and 7 minutes after infusion. The fraction of labelled erythrocytes in the total erythrocyte pool was used to estimate the circulating erythrocyte volume (VERY). Pre-injection unlabeled erythrocytes served as negative control. The fraction of labelled erythrocytes in the blood was measured using a FACScan analyzer (FACS Calibur®, Becton Dickinson, Mountain View, USA). At least 100,000 cells were counted. Data were analyzed by Cellquest (Becton Dickinson, San Jose, Calif., USA). Haematocrit (Ht) was measured after centrifugation of heparinized blood in a Hettich-Haematokrit centrifuge at 10,000 rpm during 5 minutes (Hettich, Tuttlingen, Germany). Circulating plasma volume was calculated from VERY and large vessel Ht by the following formula: circulating plasma volume=([1−Ht]×VERY)/Ht.
Dextran 40 (Rheomacrodex; NPBI International, Emmercompascuum, the Netherlands) was used as a probe to estimate total intravascular volume, which includes the glycocalyx compartment. A bolus of 10 ml Dextran 1 (Promiten; NPBI International, Emmer-compascuum, the Netherlands) was injected to attenuate the risk of anaphylactic reactions prior to Dextran 40 infusion. 100 ml Dextran 40 was injected intravenously, followed by repeated blood sampling at 5, 7, 10, 15, 20, and 30 minutes. Dextran 40 concentration was calculated by measuring the increase in glucose concentration in the post infusion samples after hydrolyzation of Dextran 40 glucose polymers (Van Kreel et al. 1998. Clin Chim Acta 275: 71-80). Glucose concentration per time point was assessed in duplicate using the hexokinase method (Gluco-quant, Hitachi 917; Hitachi). To determine the initial intravascular distribution volume of Dextran 40, the concentration of Dextran 40 at the time of injection was estimated by exponential fitting of the measured Dextran 40 concentrations. Exponential time constants (τ [min]) were used to determine Dextran 40 systemic clearance rates (τ^−1 min^−1).

[6] = test system: TNFα-induced inflammatory responses; test: Plasma inflammatory markers (IL-6, CRP) and circulating leukocytes after endotoxin challenge; assay type: in vivo, human
Experimental: as §1

[7] = test system: sublingual microcirculation; test: Microvascular glycocalyx / capillary density by OPS imaging of the sublingual microcirculation after endotoxin challenge; assay type: in vivo, human; conditions: upon endotoxin challenge; from 59±7 at baseline; p<0.01
Experimental: as §1
Thickness of endothelial glycocalyx in individual capillary blood vessels was measured by orthogonal polarization spectral (OPS) imaging of the sublingual microcirculation (Cytometrics, Philadelphia, Pa., USA) as previously published (Nieuwdorp et al. 2006, supra; Nieuwdorp et al. 2006. Diabetes 55: 1127-32). In short, the width of flowing erythrocytes was measured in 5 individual capillaries before and immediately after capillary leukocyte passage. In healthy capillaries, the glycocalyx limits capillary blood filling by separating erythrocytes from the luminal endothelial surface, which is known as the red cell exclusion zone. […] Images sized 728×576 pixels were recorded were collected with a 5× objective providing a 325× magnification at a frame rate of 25/second. […] The anatomical capillary diameter and the width of the flowing erythrocyte column were measured using digital calipers prior to and after spontaneous capillary leukocyte passage. Per participant, glycocalyx dimension was determined in at least 5 capillaries. […] In addition as indication of capillary density, the number of capillaries per field was counted.

[8] = test system: thrombin generation and fibrinolysis; test: Coagulation and fibrinolysis markers (prothrombin fragment F1+2, D-dimer) after endotoxin challenge; assay type: in vivo, human; conditions: p<0.05
Experimental: as §1

[9] = test system: monocytes; test: Leukocyte differentiation and monocyte flow cytometry after endotoxin challenge; assay type: in vivo, human
Experimental: as §1
Whole blood samples were collected in pyrogen-free lithium-heparin tubes and then incubated for 10 min with 9 volumes ice-cold erythrocyte lysis buffer and centrifuged for 10 min at 4° C. Remaining cells were washed twice with ice-cold PBS. For flow cytometric analysis 0.5×10^6 cells were incubated in FACS buffer mixed with antibody. All reagents were titrated to obtain optimal results as recommended by the manufacturers. Cell surface staining was performed with Fluorescein Isothiocyanate (FITC) labelled mouse anti-human CD14 (IgG2a), anti-human Allophycocyanin (APC) labelled CD18 (IgG1) and Phycoerythrin (PE) labelled anti-human CD11b (IgG1) and CD62L (IgG1) (R&D Systems, San Jose, Calif., USA). Appropriate isotype control antibodies were used to correct for non-specific antibody binding. After staining, the cells were washed, fixed in 4% paraformaldehyde, and analyzed by flow cytometry using a FACS Calibur flow cytometer. Data were analyzed with CellQuest software (Becton Dickinson, Franklin Lakes, N.J., USA).

O=[N+]([O-])OCC(CO[N+](=O)[O-])O[N+](=O)[O-] [nitroglycerine]
effect on the glycocalyx as known [1]: known to cause damage to the glycocalyx
status of the glycocalyx (RBCW, glycocalyx width; FIGS. 5A and 5B) [2]: a clear distinction between the status of the glycocalyx in treated and untreated subjects

Etanercept
body temperature ([3]; 4 hours after endotoxin infusion, from 36.6±0.5 at baseline, ns): 37.3±0.5 °C
heart rate ([3]; 4 hours after endotoxin infusion, from 62±4 at baseline, ns): 69±3
diastolic blood pressure ([3]; 4 hours after endotoxin infusion, from 69±6 at baseline, ns): 67±6 mm Hg
systolic blood pressure ([3]; 4 hours after endotoxin infusion, from 125±7 at baseline, ns): 123±10 mmHg
clinical symptoms of endotoxemia (chills, headache, myalgia, nausea) ([3]; after endotoxin infusion, saline versus Etanercept group, data not shown): more frequently and more intensive in the saline group compared to the Etanercept group
plasma hyaluronidase activity, change compared to baseline ([4]; 4 hours after endotoxin infusion, ns): −8±14%
plasma heparan sulphate levels ([4]; 24 hours after endotoxin infusion, p<0.01 versus saline group): 7.4 ± 1.5 µg/mL
heparan sulphate plasma levels ([4]; during the 4 hours after endotoxin challenge, from 5.4±1.3, ns): 5.1 ± 1.0 µg/mL
plasma hyaluronan levels ([4]; within first hour after endotoxin infusion, from 58±13, p<0.05): 46 ± 10 ng/mL
systemic glycocalyx volume ([5]; baseline 1.7±0.5, p<0.01): 1.1 ± 0.2 L
systemic Dextran 40 clearance rate ([5]; from 0.009±0.002 at baseline, ns): 0.009 ± 0.001 min⁻¹
haematocrit values ([5]; from 0.43±0.02 at baseline, ns): 0.42±0.02
circulating plasma volume ([5]; from 2.9±0.5 at baseline, ns): 2.8 ± 0.6 L
Dextran 40 distribution volume ([5]; from 4.6±0.6 at baseline, p<0.05): 3.9 ± 0.5 L
rate of Dextran 40 plasma clearance (FIG. 1B) ([5]; saline group versus Etanercept group): increased in the saline group as compared with Etanercept group
number of circulating leukocytes compared to baseline ([6]; 4 hours after endotoxin, both treatment groups): doubled
plasma CRP ([6]; after endotoxin challenge, from 0.6±0.4 at baseline, p<0.01): 16.0 ± 3.4 mg/L
plasma IL-6 ([6]; after endotoxin challenge, from 4.6±3.1 at baseline, p<0.05): 127 ± 98 pg/mL
capillary density (number of capillaries per field) [7]: 43±15
D-dimer ([8]; from 0.2±0.1 at baseline): 0.3 ± 0.1 mg/L
prothrombin activation fragment F1+2 ([8]; from 0.3±0.1 at baseline): 2.1 ± 0.9 nmol/L
reduction of monocyte count ([9]; 4 hours after endotoxin infusion, p<0.05 compared to baseline): 51±32%
change in percentage of CD62L+ (L-selectin) expressing monocytes ([9]; 4 hours after endotoxin, p<0.05 versus saline group): +66±42%
CD14+ monocyte counts ([9]; after endotoxin infusion, ns between groups): 26±13%
CD11b+/CD18+ (Mac-1 complex) monocyte count, median ([9]; after endotoxin infusion, p<0.01 versus saline): 0.65±0.1
